ChEMBL document CHEMBL5291721, “A preclinical secondary pharmacology resource illuminates target-adverse drug reaction associations of marketed drugs” (Nat Commun, 2023)

What was measured:
[1] = target: T1, Nuclear receptor subfamily 1 group I member 3 (Homo sapiens, UniProt Q14994); format: functional
T1 sequence (Q14994 whole entry): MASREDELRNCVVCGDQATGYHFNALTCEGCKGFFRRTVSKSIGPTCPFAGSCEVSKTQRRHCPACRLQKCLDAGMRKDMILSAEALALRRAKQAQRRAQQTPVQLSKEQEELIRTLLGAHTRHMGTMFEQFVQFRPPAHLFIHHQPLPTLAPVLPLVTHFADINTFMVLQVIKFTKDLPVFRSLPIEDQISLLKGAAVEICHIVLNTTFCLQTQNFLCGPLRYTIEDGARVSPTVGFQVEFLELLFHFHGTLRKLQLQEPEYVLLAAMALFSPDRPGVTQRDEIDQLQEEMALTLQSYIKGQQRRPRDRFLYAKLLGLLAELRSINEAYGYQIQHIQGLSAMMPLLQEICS

[2] = target: T2, Oxysterols receptor LXR-alpha (Homo sapiens, UniProt Q13133); format: functional
T2 sequence (Q13133 whole entry): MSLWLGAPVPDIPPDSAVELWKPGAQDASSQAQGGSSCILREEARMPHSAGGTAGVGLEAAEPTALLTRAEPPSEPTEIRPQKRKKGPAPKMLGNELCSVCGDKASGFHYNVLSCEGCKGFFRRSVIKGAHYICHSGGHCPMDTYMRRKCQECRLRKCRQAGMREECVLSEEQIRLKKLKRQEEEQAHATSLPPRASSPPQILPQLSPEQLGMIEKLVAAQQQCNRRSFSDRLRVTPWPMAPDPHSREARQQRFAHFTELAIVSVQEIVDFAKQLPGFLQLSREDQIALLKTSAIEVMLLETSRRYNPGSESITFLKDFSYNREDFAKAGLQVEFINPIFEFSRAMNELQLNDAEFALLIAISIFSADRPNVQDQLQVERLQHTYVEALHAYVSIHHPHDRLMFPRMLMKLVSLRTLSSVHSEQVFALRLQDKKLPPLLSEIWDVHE

[3] = target: T2, Oxysterols receptor LXR-alpha; format: functional; remark: listed apart in the source
Estrogen receptor = target: T3, Estrogen receptor (Homo sapiens, UniProt P03372); format: functional
T3 sequence (P03372 whole entry): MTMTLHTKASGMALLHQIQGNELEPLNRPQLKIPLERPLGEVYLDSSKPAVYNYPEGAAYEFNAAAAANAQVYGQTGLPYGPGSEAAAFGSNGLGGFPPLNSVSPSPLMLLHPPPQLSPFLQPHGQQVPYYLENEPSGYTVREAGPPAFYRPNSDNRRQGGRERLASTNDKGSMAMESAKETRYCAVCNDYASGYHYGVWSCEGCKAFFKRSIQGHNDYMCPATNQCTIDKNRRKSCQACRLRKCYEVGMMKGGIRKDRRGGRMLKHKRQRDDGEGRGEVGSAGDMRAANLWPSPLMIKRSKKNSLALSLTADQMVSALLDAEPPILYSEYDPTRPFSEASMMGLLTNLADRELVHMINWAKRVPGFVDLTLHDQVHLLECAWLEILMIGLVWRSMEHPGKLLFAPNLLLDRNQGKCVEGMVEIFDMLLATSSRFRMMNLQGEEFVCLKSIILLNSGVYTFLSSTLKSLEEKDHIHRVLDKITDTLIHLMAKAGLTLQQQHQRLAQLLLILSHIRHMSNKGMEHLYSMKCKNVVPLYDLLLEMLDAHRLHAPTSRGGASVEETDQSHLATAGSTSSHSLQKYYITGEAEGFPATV

[4] = target: Type-2 angiotensin II receptor (Homo sapiens, UniProt P50052); format: functional
Adenosine receptor A3 = target: T4, Adenosine receptor A3 (Homo sapiens, UniProt P0DMS8)
T4 sequence (P0DMS8 whole entry): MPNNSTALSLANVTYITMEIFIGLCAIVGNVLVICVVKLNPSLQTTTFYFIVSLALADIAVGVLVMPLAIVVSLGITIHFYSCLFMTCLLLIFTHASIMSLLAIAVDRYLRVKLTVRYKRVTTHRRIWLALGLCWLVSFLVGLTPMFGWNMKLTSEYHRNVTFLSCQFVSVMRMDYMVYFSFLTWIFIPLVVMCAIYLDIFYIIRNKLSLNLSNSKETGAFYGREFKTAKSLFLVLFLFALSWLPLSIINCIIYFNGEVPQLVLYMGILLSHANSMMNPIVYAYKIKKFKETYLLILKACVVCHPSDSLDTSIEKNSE

[5] = target: T5, Muscarinic acetylcholine receptor M1 (Homo sapiens, UniProt P11229)
T5 sequence (P11229 whole entry): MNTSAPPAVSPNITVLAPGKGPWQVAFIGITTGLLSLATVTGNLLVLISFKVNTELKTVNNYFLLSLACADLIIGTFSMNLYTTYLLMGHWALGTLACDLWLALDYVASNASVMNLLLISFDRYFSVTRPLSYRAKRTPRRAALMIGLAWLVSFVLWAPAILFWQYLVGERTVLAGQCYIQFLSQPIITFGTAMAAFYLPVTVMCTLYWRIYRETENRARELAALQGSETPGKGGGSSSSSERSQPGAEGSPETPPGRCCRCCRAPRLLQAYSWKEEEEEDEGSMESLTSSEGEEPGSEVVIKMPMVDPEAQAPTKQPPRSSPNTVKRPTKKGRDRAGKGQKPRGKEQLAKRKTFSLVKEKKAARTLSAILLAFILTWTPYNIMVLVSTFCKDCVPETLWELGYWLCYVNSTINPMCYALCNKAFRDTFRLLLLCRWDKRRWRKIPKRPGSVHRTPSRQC
Further: assay procedure not described here.

Chain of Type-2 angiotensin II receptor (P50052 whole entry): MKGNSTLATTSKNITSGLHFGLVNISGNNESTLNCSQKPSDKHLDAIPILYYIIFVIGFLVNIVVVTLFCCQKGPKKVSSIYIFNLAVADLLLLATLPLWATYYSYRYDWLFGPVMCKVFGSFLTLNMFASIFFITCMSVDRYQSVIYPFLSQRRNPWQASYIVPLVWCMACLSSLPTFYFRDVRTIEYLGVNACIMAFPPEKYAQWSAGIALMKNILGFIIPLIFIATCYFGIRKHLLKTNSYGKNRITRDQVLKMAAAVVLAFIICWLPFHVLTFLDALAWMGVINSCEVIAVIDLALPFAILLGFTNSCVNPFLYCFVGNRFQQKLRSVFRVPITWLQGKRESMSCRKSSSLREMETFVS

In the case of CC(C)c1c(C(=O)Nc2ccccc2)c(-c2ccccc2)c(-c2ccc(F)cc2)n1CC[C@@H](O)C[C@@H](O)CC(=O)O [ATORVASTATIN], the AC50 [1] is reported as greater than 10 µM, the AC50 [2] is reported as greater than 30 µM and the AC50 [3] is reported as greater than 30 µM.
Work on [H]/N=C(/N)c1ccc(NCc2nc3cc(C(=O)N(CCC(=O)O)c4ccccn4)ccc3n2C)cc1 [DABIGATRAN] yielded an AC50 (Estrogen receptor) greater than 30 µM.
Work on Cc1c(O)c(=O)ccn1C [DEFERIPRONE] yielded an AC50 [4] greater than 100 µM.
With Nc1nc2ccc(OC(F)(F)F)cc2s1 [RILUZOLE] the AC50 (Adenosine receptor A3) was 29.2 µM.
Compound BIVALIRUDIN has an AC50 [5] greater than 30 µM.
